Among the data in patent publication US8541588B2, “Sulfonamide derivatives” (Pfizer Limited, priority 2009, dated 2013) are IC50 values, retold here.

Molecules are shown by their SMILES. Bounds are passed on as bounds.

In the first assay the target is T1, Nav1.7 (or SCN9A) channel; HEK cells stably transfected with hSCN9A (Homo sapiens, UniProt Q15858).
T1 construct: expressed in transfected cells
T1 sequence (Q15858 whole entry): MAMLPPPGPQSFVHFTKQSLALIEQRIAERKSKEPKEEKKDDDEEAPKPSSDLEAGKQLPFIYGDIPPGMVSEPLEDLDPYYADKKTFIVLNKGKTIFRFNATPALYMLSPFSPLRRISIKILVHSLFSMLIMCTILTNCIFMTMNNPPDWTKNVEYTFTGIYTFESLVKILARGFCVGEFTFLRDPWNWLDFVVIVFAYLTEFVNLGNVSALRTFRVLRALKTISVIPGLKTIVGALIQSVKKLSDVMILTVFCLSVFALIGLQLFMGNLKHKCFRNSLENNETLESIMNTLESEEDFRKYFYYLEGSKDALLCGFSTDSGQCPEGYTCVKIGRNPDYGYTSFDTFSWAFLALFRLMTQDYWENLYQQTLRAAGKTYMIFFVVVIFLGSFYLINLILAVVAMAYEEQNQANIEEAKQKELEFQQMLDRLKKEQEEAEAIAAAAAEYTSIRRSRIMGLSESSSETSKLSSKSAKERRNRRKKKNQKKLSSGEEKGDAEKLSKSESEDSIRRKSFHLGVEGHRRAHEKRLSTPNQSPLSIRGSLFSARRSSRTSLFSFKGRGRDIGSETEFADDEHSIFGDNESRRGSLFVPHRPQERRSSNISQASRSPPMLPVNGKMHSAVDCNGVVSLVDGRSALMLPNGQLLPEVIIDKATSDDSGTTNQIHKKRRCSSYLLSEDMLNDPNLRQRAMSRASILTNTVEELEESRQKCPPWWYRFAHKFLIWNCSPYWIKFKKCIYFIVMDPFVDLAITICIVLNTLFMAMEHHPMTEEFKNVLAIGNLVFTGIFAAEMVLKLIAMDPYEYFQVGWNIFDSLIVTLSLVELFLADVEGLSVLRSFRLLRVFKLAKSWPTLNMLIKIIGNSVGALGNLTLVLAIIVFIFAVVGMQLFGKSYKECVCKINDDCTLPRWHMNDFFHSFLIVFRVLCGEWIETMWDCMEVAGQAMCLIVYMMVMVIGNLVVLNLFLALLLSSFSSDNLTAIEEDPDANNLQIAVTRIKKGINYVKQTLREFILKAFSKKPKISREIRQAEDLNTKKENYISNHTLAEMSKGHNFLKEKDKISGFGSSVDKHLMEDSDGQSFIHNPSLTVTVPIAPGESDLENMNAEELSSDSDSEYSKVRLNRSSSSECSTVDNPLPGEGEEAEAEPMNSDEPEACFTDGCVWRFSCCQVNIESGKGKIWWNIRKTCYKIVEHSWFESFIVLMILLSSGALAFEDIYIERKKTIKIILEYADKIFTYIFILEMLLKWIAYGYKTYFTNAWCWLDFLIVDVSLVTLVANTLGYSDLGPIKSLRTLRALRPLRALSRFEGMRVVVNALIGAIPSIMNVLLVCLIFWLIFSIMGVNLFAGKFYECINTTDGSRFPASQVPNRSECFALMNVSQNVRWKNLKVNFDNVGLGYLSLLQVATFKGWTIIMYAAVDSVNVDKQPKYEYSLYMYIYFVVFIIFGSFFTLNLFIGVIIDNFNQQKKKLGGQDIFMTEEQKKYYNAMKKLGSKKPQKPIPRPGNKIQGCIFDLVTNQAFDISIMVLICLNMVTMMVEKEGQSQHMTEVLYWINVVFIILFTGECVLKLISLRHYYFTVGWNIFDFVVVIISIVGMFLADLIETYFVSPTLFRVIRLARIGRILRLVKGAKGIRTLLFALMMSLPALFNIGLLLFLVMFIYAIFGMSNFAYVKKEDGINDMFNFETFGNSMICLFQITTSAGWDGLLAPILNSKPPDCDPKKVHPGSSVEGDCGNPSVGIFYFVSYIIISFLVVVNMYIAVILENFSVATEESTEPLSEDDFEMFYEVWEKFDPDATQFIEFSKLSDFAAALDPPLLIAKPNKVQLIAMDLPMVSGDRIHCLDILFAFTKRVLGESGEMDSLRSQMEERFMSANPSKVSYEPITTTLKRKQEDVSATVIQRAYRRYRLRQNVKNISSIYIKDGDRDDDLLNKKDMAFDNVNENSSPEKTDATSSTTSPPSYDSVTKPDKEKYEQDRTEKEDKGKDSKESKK
The assay can be described thus: Nav1.7 block, PatchXpress 7000 automated whole-cell voltage clamp, estimated IC50 (EIC50). The format is cell-based. Particulars: PatchXpress platform; hSCN9A HEK cells held at V1/2 of inactivation; estimated IC50.
For orientation: IC50 means the concentration that gives 50% inhibition. Take `N#Cc1cc(S(=O)(=O)Nc2nccs2)ccc1Oc1ccc(F)cc1-c1ccc(CCO)cc1` [Example 201, 3-cyano-4-{[5-fluoro-4′-(2-hydroxyethyl)biphenyl-2-yl]oxy}-N-1,3-thiazol-2-ylbenzenesulfonamide]: the IC50 is 420 nM.

For the compound `N#Cc1cc(S(=O)(=O)Nc2ccncn2)ccc1Oc1ccccc1-c1ccccc1` [Example 106, 4-(biphenyl-2-yloxy)-3-cyano-N-pyrimidin-4-ylbenzenesulfonamide], the IC50 was 4160 nM.

Turning to `N#Cc1cc(S(=O)(=O)Nc2nccs2)ccc1Oc1ccc(-n2ccc(C(F)(F)F)n2)cc1` [Example 183, 3-cyano-N-thiazol-2-yl-4-[4-(3-trifluoromethyl-pyrazol-1-yl)-phenoxy]-benzenesulfonamide], the IC50 was 990 nM.

`N#Cc1cc(S(=O)(=O)Nc2nccs2)ccc1Oc1ccc(Cl)cc1-c1ccccc1` [Example 156, 4-[(5-chlorobiphenyl-2-yl)oxy]-3-cyano-N-1,3-thiazol-2-ylbenzenesulfonamide]: the IC50 is 30 nM.

For the compound `O=S(=O)(Nc1nccs1)c1ccc(Oc2ccn(Cc3ccc(Cl)cc3)n2)c(F)c1` [Example 232, 4-[1-(4-chloro-benzyl)-1H-pyrazol-3-yloxy]-3-fluoro-N-thiazol-2-yl-benzenesulfonamide], the IC50 was 1870 nM.

Take `N#Cc1cc(S(=O)(=O)Nc2nccs2)ccc1Oc1cc(-c2ccccc2)nn1CC(F)(F)F` [Example 190, 3-cyano-4-[5-phenyl-2-(2,2,2-trifluoro-ethyl)-2H-pyrazol-3-yloxy]-N-thiazol-2-yl-benzenesulfonamide]: the IC50 is 7710 nM.

Regarding `Cn1nc(C(F)(F)F)cc1-c1ccc(Oc2ccc(S(=O)(=O)Nc3nccs3)cc2C#N)cc1` [Example 282, 3-cyano-4-[4-(2-methyl-5-trifluoromethyl-2H-pyrazol-3-yl)-phenoxy]-N-thiazol-2-yl-benzenesulfonamide], the IC50 was 180 nM.

For `CC(C)(C)n1nc(C(F)(F)F)cc1-c1ccc(Oc2ccc(S(=O)(=O)Nc3nccs3)cc2C#N)cc1` [Example 279, 4-[4-(2-tertbutyl-5-trifluoromethyl-2H-pyrazol-3-yl)-phenoxy]-3-cyano-N-thiazol-2-yl-benzenesulfonamide], the IC50 is 70 nM.

Staying with this assay, now noted: estimated IC50; hSCN9A HEK cells, PatchXpress platform; Examples 283-814.
Consider `Cn1nccc1-c1cc(Cl)ccc1Oc1ccc(S(=O)(=O)Nc2ncc(C#N)cn2)cc1C#N` [Example 463, 4-[4-chloro-2-(1-methyl-1H-pyrazol-5-yl)phenoxy]-3-cyano-N-(5-cyanopyrimidin-2-yl)benzenesulfonamide], for which the IC50 was 22000 nM.

For the compound `N#Cc1cc(S(=O)(=O)Nc2nccs2)ccc1Oc1ccc(C(F)(F)F)cc1-c1cn[nH]c1` [Example 460, 4-(2-(1H-pyrazol-4-yl)-4-(trifluoromethyl)phenoxy)-3-cyano-N-(thiazol-2-yl)benzenesulfonamide], the IC50 was 15 nM.

For `Cn1nccc1-c1cc(Cl)ccc1Oc1ccc(S(=O)(=O)Nc2ncsc2F)cc1C#N` [Example 602, 4-[4-chloro-2-(1-methyl-1H-pyrazol-5-yl)phenoxy]-3-cyano-N-(5-fluoro-1,3-thiazol-4-yl)benzenesulfonamide], the IC50 is 1500 nM.

For the compound `N#Cc1cc(S(=O)(=O)Nc2nccs2)ccc1Oc1ccc(Cn2cccn2)cc1F` [Example 642, 3-cyano-4-[2-fluoro-4-(1H-pyrazol-1-ylmethyl)phenoxy]-N-1,3-azol-2-ylbenzenesulfonamide], the IC50 is 2600 nM.

Consider `CC(C)(C)n1nccc1-c1cc(Cl)ccc1Oc1ccc(S(=O)(=O)Nc2ncns2)cc1C#N` [Example 775, 4-[2-(1-tert-butyl-1H-pyrazol-5-yl)-4-chlorophenoxy]-3-cyano-N-1,2,4-thiadiazol-5-ylbenzenesulfonamide], for which the IC50 was 88 nM.

On to `Cc1cc(C(F)(F)F)nn1-c1cccc(Oc2ccc(S(=O)(=O)Nc3nccs3)cc2C#N)c1` [Example 650, 3-cyano-4-{3-[5-methyl-3-(trifluoromethyl)-1H-pyrazol-1-yl]phenoxy}-N-1,3-thiazol-2-ylbenzenesulfonamide], for which the IC50 was 1600 nM.

`CCn1nc(C(F)(F)F)cc1-c1ccc(Oc2ccc(S(=O)(=O)Nc3ncc(F)cc3F)cc2C#N)cc1` [Example 311, 3-cyano-N-(3,5-difluoropyridin-2-yl)-4-{4-[1-ethyl-3-(trifluoromethyl)-1H-pyrazol-5-yl]phenoxy}benzenesulfonamide]: the IC50 is 4900 nM.

As to `N#Cc1cc(S(=O)(=O)Nc2ncc(F)s2)ccc1Oc1ccc(Cl)c(Cn2ccnn2)c1` [Example 533, 4-[4-chloro-3-(1H-1,2,3-triazol-1-ylmethyl)phenoxy]-3-cyano-N-(5-fluoro-1,3-thiazol-2-yl)benzenesulfonamide], the IC50 is 780 nM.

As for `O=S(=O)(Nc1ncc(F)s1)c1ccc(Oc2ccc(Cl)cc2-c2cn[nH]c2)c(F)c1` [Example 674, 4-[4-chloro-2-(1H-pyrazol-4-yl)phenoxy]-3-fluoro-N-(5-fluoro-1,3-thiazol-2-yl)benzenesulfonamide], the half-inhibitory concentration (IC50) is 88 nM.

For the compound `O=S(=O)(Nc1ncns1)c1ccc(Oc2ccc(F)cc2-c2ccn[nH]2)c(Cl)c1` [Example 478, 3-chloro-4-[4-fluoro-2-(1H-pyrazol-5-yl)phenoxy]-N-1,2,4-thiadiazol-5-ylbenzenesulfonamide], the half-maximal inhibitory concentration (IC50) was 44 nM.

On to `Cn1nc(C(F)(F)F)cc1-c1ccc(Oc2ccc(S(=O)(=O)Nc3ncc(F)s3)cc2F)cc1` [Example 609, 3-fluoro-N-(5-fluoro-1,3-thiazol-2-yl)-4-{4-[1-methyl-3-(trifluoromethyl)-1H-pyrazol-5-yl]phenoxy}benzenesulfonamide], for which the half-inhibitory concentration (IC50) was 1700 nM.

`O=S(=O)(Nc1ncns1)c1cc(F)c(Oc2ccc(F)cc2-c2cn[nH]c2)cc1F` [Example 756, 2,5-difluoro-4-[4-fluoro-2-(1H-pyrazol-4-yl)phenoxy]-N-1,2,4-thiadiazol-5-ylbenzenesulfonamide]: the IC50 is 11 nM.

Consider `N#Cc1cc(S(=O)(=O)Nc2ncc(Cl)s2)ccc1Oc1ccc(Cl)cc1-c1cn[nH]c1` [Example 786, N-(5-Chloro-1,3-thiazol-2-yl)-3-cyano-4-[4-chloro-2-(1H-pyrazol-4-yl)phenoxy]benzenesulfonamide], for which the IC50 is 7.6 nM.

Consider `O=S(=O)(Nc1nccs1)c1cc(F)c(Oc2ccc(Cl)cc2-c2cn[nH]c2)cc1F` [Example 679, 4-[4-chloro-2-(1H-pyrazol-4-yl)phenoxy]-2,5-difluoro-N-1,3-thiazol-2-ylbenzenesulfonamide], for which the IC50 is 31 nM.

On to `Cn1nccc1-c1cc(Cl)ccc1Oc1ccc(S(=O)(=O)Nc2ncc(Cl)s2)cc1C#N` [Example 597, 4-[4-Chloro-2-(1-methyl-1H-pyrazol-5-yl)phenoxy]-N-(5-chloro-1,3-thiazol-2-yl)-3-cyanobenzenesulfonamide], for which the IC50 is 20 nM.

With `COCc1cnn(-c2ccc(Oc3ccc(S(=O)(=O)Nc4nccs4)cc3C#N)cc2)c1` [Example 376, 3-cyano-4-{4-[4-(methoxymethyl)-1H-pyrazol-1-yl]phenoxy}-N-1,3-thiazol-2-ylbenzenesulfonamide], the IC50 is over 1000 nM.

With `Cn1nccc1-c1ccc(I)cc1Oc1ccc(S(=O)(=O)Nc2ncc(F)s2)cc1C#N` [Example 780, 3-cyano-N-(5-fluoro-1,3-thiazol-2-yl)-4-[5-iodo-2-(1-methyl-1H-pyrazol-5-yl)phenoxy]benzenesulfonamide], the IC50 is 32 nM.

Turning to `O=S(=O)(Nc1cscn1)c1ccc(Oc2ccc(Cl)cc2-c2cn[nH]c2)c(F)c1` [Example 611, 4-[4-chloro-2-(1H-pyrazol-4-yl)phenoxy]-3-fluoro-N-1,3-thiazol-4-ylbenzenesulfonamide], the IC50 is 520 nM.

With `Cn1nccc1-c1cc(C(F)(F)F)ccc1Oc1ccc(S(=O)(=O)Nc2ncns2)cc1C#N` [Example 437, 3-cyano-4-[2-(1-methyl-1H-pyrazol-5-yl)-4-(trifluoromethyl)phenoxy]-N-1,2,4-thiadiazol-5-ylbenzenesulfonamide], the IC50 is 56 nM.

The assay is the same for the next values; noted with them: estimated IC50; hSCN9A HEK cells, PatchXpress platform; Examples 815-1040.
In the case of `CN1CC(n2nccc2-c2cc(Cl)ccc2Oc2ncc(S(=O)(=O)Nc3ncns3)cc2Cl)C1` [Example 968, 5-chloro-6-{4-chloro-2-[1-(1-methylazetidin-3-yl)-1H-pyrazol-5-yl]phenoxy}-N-1,2,4-thiadiazol-5-ylpyridine-3-sulfonamide], the concentration for half-maximal inhibition (IC50) was 2000 nM.

Turning to `N#Cc1cc(S(=O)(=O)Nc2ncns2)ccc1Oc1ccc(C(F)(F)F)cc1-c1cccc(CN2CC[C@@H](O)C2)c1` [Example 987, 3-cyano-4-{[3′-{[(3R)-3-hydroxypyrrolidin-1-yl]methyl}-5-(trifluoromethyl)biphenyl-2-yl]oxy}-N-1,2,4-thiadiazol-5-ylbenzenesulfonamide], the IC50 is 1.1 nM.

As to `N#Cc1cc(S(=O)(=O)Nc2nncs2)ccc1Oc1ccc(OC(F)(F)F)cc1-c1ccnnc1` [Example 933, 3-cyano-4-[2-pyridazin-4-yl-4-(trifluoromethoxy)phenoxy]-N-1,3,4-thiadiazol-2-ylbenzenesulfonamide], the IC50 is over 100 nM.

For `O=S(=O)(Nc1nncs1)c1cc(F)c(Oc2ccc(Cl)cc2-c2cn[nH]c2)cc1F` [Example 821, 4-[4-chloro-2-(1H-pyrazol-4-yl)phenoxy]-2,5-difluoro-N-1,3,4-thiadiazol-2-ylbenzenesulfonamide], the half-maximal inhibitory concentration (IC50) is 100 nM.

`CN1CC(n2nccc2-c2cc(C(F)(F)F)ccc2Oc2cc(F)c(S(=O)(=O)Nc3cscn3)cc2F)C1` [Example 1023, 2,5-Difluoro-4-{2-[1-(1-methylazetidin-3-yl)-1H-pyrazol-5-yl]-4-(trifluoromethyl)phenoxy}-N-1,3-thiazol-4-ylbenzenesulfonamide]: the IC50 is 4 nM.

For `N#Cc1cc(S(=O)(=O)Nc2ncns2)ccc1Oc1ccc(C(F)(F)F)cc1-c1ccnn1C1CNC1` [Example 935, 4-[2-(1-azetidin-3-yl-1H-pyrazol-5-yl)-4-(trifluoromethyl)phenoxy]-3-cyano-N-1,2,4-thiadiazol-5-ylbenzenesulfonamide], the IC50 is 3.8 nM.
